Literature values in patent US10907142B2, “Oligosaccharides comprising an aminooxy group and conjugates thereof” (Genzyme Corporation, priority 2007, dated 2021).

Tested on: skeletal and cardiac muscle glycogen
Details: murine model of Pompe disease; compared with recombinant human GAA; conjugate prepared by the method of U.S. Pat. No. 7,001,994

conjugate of the lysosomal enzyme acid α-glucosidase (GAA) with a a bis-M6P oligosaccharide: GAA coupled with a bis-M6P oligosaccharide by the method of U.S. Pat. No. 7,001,994
reducing skeletal and cardiac muscle glycogen: more effective in reducing skeletal and cardiac muscle glycogen than recombinant human GAA
